According to patent publication US20140349297A1, “FLUORESCENT DYES BASED ON ACRIDINE AND ACRIDINIUM DERIVATIVES” (Almac Sciences (Scotland) Limited, priority 2011, published 2014):
Where “and” joins values, the source holds several entries; their conditions need not be identical. Equal values may be shown once. Where a name gives a salt, the structure may show the parent alone.

Tests used:
recombinant Lck kinase = target: T1, recombinant Lck kinase (Homo sapiens, UniProt P06239); format: biochemical; details: Lck 3.6 mU/well, 1 μM LLD-EPEGIYGVLF substrate; read-out: ATP Km
T1 construct: purchased EnzoLifeSciences
T1 sequence (P06239 whole entry, species assumed): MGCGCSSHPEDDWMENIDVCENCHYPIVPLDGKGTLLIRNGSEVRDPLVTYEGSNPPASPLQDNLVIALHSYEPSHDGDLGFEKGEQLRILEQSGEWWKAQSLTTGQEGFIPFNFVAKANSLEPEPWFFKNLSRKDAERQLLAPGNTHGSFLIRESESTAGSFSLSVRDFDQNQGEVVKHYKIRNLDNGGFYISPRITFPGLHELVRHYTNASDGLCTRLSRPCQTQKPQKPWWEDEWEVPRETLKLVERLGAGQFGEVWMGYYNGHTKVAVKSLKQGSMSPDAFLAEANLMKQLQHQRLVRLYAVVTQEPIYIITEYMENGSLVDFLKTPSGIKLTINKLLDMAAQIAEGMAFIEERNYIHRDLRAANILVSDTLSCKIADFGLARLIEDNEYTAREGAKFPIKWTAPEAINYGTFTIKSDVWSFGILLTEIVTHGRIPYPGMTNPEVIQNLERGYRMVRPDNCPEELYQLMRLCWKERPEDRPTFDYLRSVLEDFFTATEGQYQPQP
Experimental: Enzyme: Lck (p56Ick) (EnzoLifeSciences, 18 U/m1), 3.6 mU/well
Enzyme (3.6 mU in 5 μl buffer A) was then added to each well. […] The average lifetime values were converted to pmol phosphopeptide from a standard curve and plots of initial rates of reaction dependent on ATP concentration were used to determine the ATP Km value by non-linear regression fitting using GraphPad Prism (see FIG. 10).

[1] = Fluorescence lifetimes of acridine derivatives by TCSPC (Table 1); format: physicochemical; details: excitation 405 nm
Experimental: Fluorescence lifetimes were determined by time-correlated single photon counting (TCSPC) acquisition using an Edinburgh Instruments Nanotaurus fluorescence lifetime platereader, using excitation laser 405 nm and either a 438 nm band pass, 450 nm band pass or 473 nm long pass emission filter for detection.

[2] = Fluorescence analysis of 9,10-dimethylacridin-10-ium methyl sulfate (lifetime decay); format: physicochemical
Experimental: Measurements were performed in 10 mM PBS pH 7.4, excitation wavelength 350 nm and emission wavelength 490 nm for steady state, and excitation wavelength 405 nm and emission wavelength 473 nm long pass filter for fluorescence lifetime;
Steady state measurements were performed on an Edinburgh Instruments FLS920 steady state fluorimeter, with excitation wavelength of 350 nm and emission wavelength of 490 nm. Fluorescence lifetimes were determined by time-correlated single photon counting (TCSPC) acquisition using an Edinburgh Instruments Nanotaurus fluorescence lifetime platereader, using excitation laser 405 nm and a 473 nm long pass emission filter for detection.
The fluorescence excitation and emission spectra were measured at 1 μM 9,10-dimethylacridin-10-ium methyl sulfate concentration in phosphate buffered saline (PBS) solution pH 7.4. The fluorescence excitation and emission spectra, and fluorescence lifetime decay curve are shown in FIG. 1(a) and FIG. 1(b) respectively. 9,10-Dimethylacridin-10-ium methyl sulfate has an advantageously long fluorescence lifetime of circa 25-30 ns. In addition, the magnitude of the fluorescence lifetime was maintained across the three buffer systems tested (see Table 1, entry 6).

[3] = pH stability of fluorescence lifetime; format: physicochemical; details: 1 μM in 20 mM sodium phosphate buffer
Experimental: 1 μM solutions of 9,10-dimethylacridin-10-ium methyl sulfate in 20 mM sodium phosphate buffer were prepared using 0.2 M monobasic sodium phosphate and 0.2 M dibasic sodium phosphate buffer mixtures, 0.1 M HCl solution was used to adust the pH to <6 and 0.1 M NaOH solution was used to adjust the pH to >8;
An important criteria of fluorescence dyes suitable for use in biochemical and cell-based assays is the advantageousness of the fluorescence lifetime being independent of pH in the physiological range 5 to 9.

[4] = Fluorescence emission profile as a function of pH; format: physicochemical; details: excitation 405 nm
Experimental: The fluorescence emission profile was measured as a function of pH upon excitation at 405 nm (FIG. 3).

[5] = reported, Tanaka et al. 2001; cited from earlier work

Fluorescence Lifetime ([1]; 1 μM in 50 mM AcOH solution) [ns]	Fluorescence Lifetime ([1]; 1 μM in PBS) [ns]	Fluorescence Lifetime ([1]; 1 μM in water) [ns]	fluorescence lifetime (decay curve, FIG. 1b) ([2]; 10 mM PBS pH 7.4, excitation 405 nm, 473 nm long pass emission filter) [ns]	Fluorescence Lifetime ([2]; circa, maintained across the three buffer systems tested)	fluorescence lifetime as a function of pH [3]	emission maximum ([4]; solutions >pH 10)	emission maximum ([4]; solutions at pH 3 to 10)	Compound	Km (recombinant Lck kinase) [µM]	pKa of methyl protons at the 9-position [5]
16.4	16.3	16.4	–	–	–	–	–	C[n+]1c2ccccc2c(N)c2ccccc21.[Cl-] [Entry 2]	–	–
29.1	11.7	29.1	–	–	–	–	–	Cc1c2ccccc2nc2ccccc12 [Entry 4]	–	–
29.8	26.2	30.0	26.2	25-30 ns	stable across the pH range 3 to 10	425 nm and 450 nm	460 nm and 490 nm	Cc1c2ccccc2[n+](C)c2ccccc12 [Entry 6, 9,10-dimethylacridin-10-ium methyl sulfate]	–	akin to acetic acid

Second part, the compound before the results:

Compound	Fluorescence Lifetime ([1]; 1 μM in 50 mM AcOH solution) [ns]	Fluorescence Lifetime ([1]; 1 μM in PBS) [ns]	Fluorescence Lifetime ([1]; 1 μM in water) [ns]	fluorescence lifetime (decay curve, FIG. 1b) ([2]; 10 mM PBS pH 7.4, excitation 405 nm, 473 nm long pass emission filter) [ns]	Fluorescence Lifetime ([2]; circa, maintained across the three buffer systems tested)	fluorescence lifetime as a function of pH [3]	emission maximum ([4]; solutions >pH 10)	emission maximum ([4]; solutions at pH 3 to 10)	Km (recombinant Lck kinase) [µM]	pKa of methyl protons at the 9-position [5]
Nc1ncnc2c1ncn2[C@@H]1O[C@H](COP(=O)(O)OP(=O)(O)OP(=O)(O)O)[C@@H](O)[C@H]1O [ATP]	–	–	–	–	–	–	–	–	36.4	–
Nc1c2ccccc2nc2ccccc12 [Entry 1]	15.6	15.6	15.7	–	–	–	–	–	–	–
c1ccc2nc3ccccc3cc2c1 [Entry 3]	29.4	18.8	10.5	–	–	–	–	–	–	–
C[n+]1c2ccccc2cc2ccccc21 [Entry 5]	32.1	31.9	14.1	–	–	–	–	–	–	–
